Source: ChEMBL document CHEMBL1201862, “PubChem BioAssay data set” (2004)
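Where inhibition never reached the appropriate level, the endpoint shown equals the highest concentration tested. Otherwise, values were interpolated linearly from a five-concentration, 48-hour dose response in 96-well plates. Here, GI50 denotes the concentration required for 50% inhibition of growth.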 The source made the active and inactive calls. No stated cut-off is given here; in the data, active = GI50 up to about 1.1 µM and inactive = higher.

Tests used:
Assay in all cases: inhibition of tumour cell growth, NCI panel, 48 h
[1] = system: A498
[2] = system: HL-60
[3] = system: UACC-62
[4] = system: EKVX
[5] = system: UO-31
[6] = system: OVCAR-4
[7] = system: SW-620
[8] = system: SF-539
[9] = system: SNB-19
[10] = system: 786-0
[11] = system: RXF 393
[12] = system: OVCAR-3
[13] = system: SK-MEL-28
[14] = system: K562
[15] = system: UACC-257
[16] = system: CCRF-CEM
[17] = system: LXFL 529
[18] = system: HCT-116
[19] = system: HCT-15
[20] = system: MCF7

| Structure (SMILES) | GI50 [1] | GI50 [2] | GI50 [3] | GI50 [4] | GI50 [5] | GI50 [6] | GI50 [7] | GI50 [8] | GI50 [9] | GI50 [10] | GI50 [11] | GI50 [12] | GI50 [13] | GI50 [14] | GI50 [15] | GI50 [16] | GI50 [17] | GI50 [18] | GI50 [19] [µM] | GI50 [20] |
| --- | --- | --- | --- | --- | --- | --- | --- | --- | --- | --- | --- | --- | --- | --- | --- | --- | --- | --- | --- | --- |
| O=C(/C=C/c1ccccc1O)c1cccnc1 | > 100 µM (inactive) | > 100 µM (inactive) | > 100 µM (inactive) | > 100 µM (inactive) | > 100 µM (inactive) | > 100 µM (inactive) | > 100 µM (inactive) | > 100 µM (inactive) | > 100 µM (inactive) | > 100 µM (inactive) | > 100 µM (inactive) | > 100 µM (inactive) | > 100 µM (inactive) | > 100 µM (inactive) | > 100 µM (inactive) | > 100 µM (inactive) | > 100 µM (inactive) | > 100 µM (inactive) | – | – |
| COc1ccc(C=O)cc1O[Si](C)(C)C(C)(C)C | > 100 µM (inactive) | > 100 µM (inactive) | > 100 µM (inactive) | > 100 µM (inactive) | > 100 µM (inactive) | > 100 µM (inactive) | > 100 µM (inactive) | > 100 µM (inactive) | > 100 µM (inactive) | > 100 µM (inactive) | > 100 µM (inactive) | > 100 µM (inactive) | – | > 100 µM (inactive) | > 100 µM (inactive) | > 100 µM (inactive) | > 100 µM (inactive) | > 100 µM (inactive) | > 100 | – |
| O=C1O[C@H](C(Cl)(Cl)Cl)N2CCCC12 (stereo not given in full) | > 100 µM (inactive) | > 100 µM (inactive) | > 100 µM (inactive) | > 100 µM (inactive) | > 100 µM (inactive) | > 100 µM (inactive) | > 100 µM (inactive) | > 100 µM (inactive) | > 100 µM (inactive) | > 100 µM (inactive) | > 100 µM (inactive) | > 100 µM (inactive) | > 100 µM (inactive) | > 100 µM (inactive) | > 100 µM (inactive) | > 100 µM (inactive) | > 100 µM (inactive) | – | > 100 | – |
| CC(C)=C1CCC(CN(C)C)C1=O (stereo not given) | 19.6 µM (inactive) | 3.61 µM (inactive) | 18.1 µM (inactive) | 17.7 µM (inactive) | > 100 µM (inactive) | 15 µM (inactive) | 6.12 µM (inactive) | > 100 µM (inactive) | > 100 µM (inactive) | 12.6 µM (inactive) | 18.6 µM (inactive) | 17.6 µM (inactive) | 18.2 µM (inactive) | 6.08 µM (inactive) | 17.5 µM (inactive) | 8.95 µM (inactive) | 12.8 µM (inactive) | 12.9 µM (inactive) | 14.8 | – |
| Cc1cc(NS(=O)(=O)c2ccc(NC(=O)c3ccc(Cl)c4c(Nc5ccc(S(=O)(=O)Nc6cc(C)on6)cc5)c5ccccc5nc34)cc2)no1 | 24.1 µM (inactive) | 21.3 µM (inactive) | 14.4 µM (inactive) | 39 µM (inactive) | 15.9 µM (inactive) | 34.6 µM (inactive) | 28.1 µM (inactive) | 14.9 µM (inactive) | 14.4 µM (inactive) | 16 µM (inactive) | > 10 µM (inactive) | 16.6 µM (inactive) | > 10 µM (inactive) | 23.2 µM (inactive) | 20.2 µM (inactive) | 18.8 µM (inactive) | 21.6 µM (inactive) | 14.2 µM (inactive) | 18.7 | – |
| Cn1c2c(c3ccccc31)CCN(CCCCN1CCN(c3cccc(Cl)c3)CC1)C2=O | 13.8 µM (inactive) | 3.67 µM (inactive) | 11.4 µM (inactive) | 21.5 µM (inactive) | 6.21 µM (inactive) | 14.9 µM (inactive) | 12.6 µM (inactive) | 12.8 µM (inactive) | 17.7 µM (inactive) | 13 µM (inactive) | 7.94 µM (inactive) | 15.5 µM (inactive) | 6.07 µM (inactive) | 4.45 µM (inactive) | 7.03 µM (inactive) | 9.86 µM (inactive) | 11.1 µM (inactive) | 6.65 µM (inactive) | 11.6 | – |
| CCOC(=O)c1c(C(F)(F)F)oc2c1ccc1nc3nonc3nc12 | 16.7 µM (inactive) | 4.46 µM (inactive) | 15 µM (inactive) | 17.9 µM (inactive) | 19.2 µM (inactive) | 9.82 µM (inactive) | 16.8 µM (inactive) | 16.2 µM (inactive) | 18.2 µM (inactive) | 12.4 µM (inactive) | 11.9 µM (inactive) | 16.5 µM (inactive) | 14.3 µM (inactive) | 2.67 µM (inactive) | 13.5 µM (inactive) | 1.91 µM (inactive) | 14 µM (inactive) | 17 µM (inactive) | 17.3 | – |
| CCc1cccc(C)c1NC(=O)CC1Sc2ccccc2NC1=O (stereo not given) | 28.6 µM (inactive) | 18.1 µM (inactive) | 46.9 µM (inactive) | 91.8 µM (inactive) | 30.1 µM (inactive) | 75.3 µM (inactive) | 37.8 µM (inactive) | 31.9 µM (inactive) | 57.4 µM (inactive) | 29.2 µM (inactive) | 16.9 µM (inactive) | 32.6 µM (inactive) | 84.7 µM (inactive) | 23.8 µM (inactive) | 11.4 µM (inactive) | 25.2 µM (inactive) | 56.8 µM (inactive) | 34.3 µM (inactive) | 39.3 | – |
| C1CC2=C(C1)C1=S(S2)SC2=C1CCC2 | 10.7 µM (inactive) | > 100 µM (inactive) | > 100 µM (inactive) | > 100 µM (inactive) | > 100 µM (inactive) | > 100 µM (inactive) | > 100 µM (inactive) | > 100 µM (inactive) | > 100 µM (inactive) | > 100 µM (inactive) | > 100 µM (inactive) | > 100 µM (inactive) | > 100 µM (inactive) | > 100 µM (inactive) | > 100 µM (inactive) | > 100 µM (inactive) | > 100 µM (inactive) | > 100 µM (inactive) | > 100 | – |
| CC(C)(C)OC(=O)Cc1ccc2c(ccn2Cc2ccccc2)c1 | > 100 µM (inactive) | 28.2 µM (inactive) | 69 µM (inactive) | 81.8 µM (inactive) | 37.9 µM (inactive) | 83.6 µM (inactive) | 67.1 µM (inactive) | 93.5 µM (inactive) | > 100 µM (inactive) | 73.8 µM (inactive) | 37.1 µM (inactive) | 56.2 µM (inactive) | > 100 µM (inactive) | > 100 µM (inactive) | 39.9 µM (inactive) | > 100 µM (inactive) | 46.7 µM (inactive) | 25.2 µM (inactive) | 12.8 | – |
| C1OCC2S[C@@H]3COCO[C@@H]3C2O1 (stereo not given in full) | > 100 µM (inactive) | > 100 µM (inactive) | > 100 µM (inactive) | > 100 µM (inactive) | > 100 µM (inactive) | > 100 µM (inactive) | – | > 100 µM (inactive) | > 100 µM (inactive) | > 100 µM (inactive) | > 100 µM (inactive) | > 100 µM (inactive) | > 100 µM (inactive) | > 100 µM (inactive) | > 100 µM (inactive) | > 100 µM (inactive) | > 100 µM (inactive) | > 100 µM (inactive) | > 100 | – |
| CN(C(=O)C1CC1)C1C2CN3CCC(O2)C13 (stereo not given) | > 100 µM (inactive) | > 100 µM (inactive) | > 100 µM (inactive) | > 100 µM (inactive) | > 100 µM (inactive) | > 100 µM (inactive) | > 100 µM (inactive) | > 100 µM (inactive) | > 100 µM (inactive) | > 100 µM (inactive) | > 100 µM (inactive) | > 100 µM (inactive) | > 100 µM (inactive) | > 100 µM (inactive) | > 100 µM (inactive) | > 100 µM (inactive) | > 100 µM (inactive) | > 100 µM (inactive) | > 100 | – |
| CC(C)=CCCc1c(C)ccc2c1C(=O)C(=O)C(C(C)C)=C2 | > 22 µM (inactive) | 1.03 µM (active) | – | > 22 µM (inactive) | 6.98 µM (inactive) | 3.84 µM (inactive) | 3.86 µM (inactive) | 4.27 µM (inactive) | > 22 µM (inactive) | 3.95 µM (inactive) | 3.68 µM (inactive) | 3.76 µM (inactive) | 3.87 µM (inactive) | 3.87 µM (inactive) | – | 0.661 µM (active) | 3.62 µM (inactive) | 3.57 µM (inactive) | 3.85 | – |
| COC(=O)c1ccc2c(c1)C(NC(C)=O)CCc1cc(OC)c(OC)c(OC)c1-2 (stereo not given) | 0.0133 µM (active) | 0.0136 µM (active) | 0.0131 µM (active) | 4.19 µM (inactive) | 0.0721 µM (active) | 11.9 µM (inactive) | 0.0129 µM (active) | 0.0124 µM (active) | 0.0183 µM (active) | 0.015 µM (active) | 0.0139 µM (active) | < 0.0116 µM (active) | 0.0265 µM (active) | 0.0128 µM (active) | 0.53 µM (active) | 0.0133 µM (active) | < 0.0154 µM (active) | < 0.0114 µM (active) | 0.0366 | 0.0612 µM (active) |
| CC(=O)/C=C/c1ccc(C)cc1 | > 100 µM (inactive) | > 100 µM (inactive) | > 100 µM (inactive) | > 100 µM (inactive) | > 100 µM (inactive) | > 100 µM (inactive) | > 100 µM (inactive) | > 100 µM (inactive) | > 100 µM (inactive) | > 100 µM (inactive) | > 100 µM (inactive) | > 100 µM (inactive) | > 100 µM (inactive) | > 100 µM (inactive) | > 100 µM (inactive) | > 100 µM (inactive) | > 100 µM (inactive) | > 100 µM (inactive) | > 100 | – |
